The term Cmax denotes the peak of the concentration-time curve. The term Tmax denotes the time at which the peak concentration occurs. The term IC50 denotes the concentration that inhibits the measured activity by half.

Where two headings read alike, the source gives them in different places. Some results are limits rather than exact numbers.

The values below come from patent publication US12293809B2, “Workflow for generating compounds with biological activity against a specific biological target” (INSILICO MEDICINE IP LIMITED, priority 2019, dated 2025).

Data set [1] can be described thus: Mouse PK study, PO administration. It is filed as in vivo.
A further data set deals with T1, CYP2C19 (Homo sapiens, UniProt P33261).
T1 construct: from tissue; host or cells: human liver microsomes (HLM)
T1 sequence (P33261 whole entry): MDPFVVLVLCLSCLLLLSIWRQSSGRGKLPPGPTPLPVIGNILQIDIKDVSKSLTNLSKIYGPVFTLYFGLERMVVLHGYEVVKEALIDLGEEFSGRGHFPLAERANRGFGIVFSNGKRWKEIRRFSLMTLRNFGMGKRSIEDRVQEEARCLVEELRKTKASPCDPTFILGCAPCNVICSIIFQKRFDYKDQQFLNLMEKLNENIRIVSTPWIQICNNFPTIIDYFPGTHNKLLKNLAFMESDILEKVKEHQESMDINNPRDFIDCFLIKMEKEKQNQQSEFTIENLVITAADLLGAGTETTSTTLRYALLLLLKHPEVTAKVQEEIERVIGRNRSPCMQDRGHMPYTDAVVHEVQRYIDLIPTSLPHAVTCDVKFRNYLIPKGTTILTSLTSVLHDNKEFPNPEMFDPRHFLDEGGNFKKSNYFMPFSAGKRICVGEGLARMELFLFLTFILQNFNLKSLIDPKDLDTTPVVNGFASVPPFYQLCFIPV
Briefly: Cytochrome inhibition in HLM. It is filed as in vitro ADME. The protocol: (§1) Water used in the assay and analysis was purified by ELGA Lab purification systems. Potassium phosphate buffer (PB) in concentration of 100 mM and MgCl2 in concentration of 33 mM were used. […] Microsomes were pulled out of the −80° C. freezer to thaw on ice, labeled the date and put back to freezer immediately after using. 20 μL of the substrates solutions were added to corresponding wells. 20 μL PB were added to Blank wells. 2 μL of the test compounds and positive control working solution were added to corresponding wells. Then, HLM working solution was prepared. 158 μL of the HLM working solution was added to all wells of incubation plate. The plate was pre-warmed for about 10 min at 37° C. water bath. Then, NADPH cofactor solution was prepared. 20 μL NADPH cofactor was added to all incubation wells. The solution was mixed and incubated for 10 minutes at 37° C. water bath. At the time point, the reaction was terminated by adding 400 μL cold stop solution (200 ng/mL Tolbutamide and 200 ng/mL Labetalol in ACN). The samples were centrifuged at 4000 rpm for 20 minutes to precipitate protein. 200 μL supernatant was transferred to 100 μL HPLC water and shaken for 10 min. XL fit was used to plot the percent of vehicle control versus the test compound concentrations, and for non-linear regression analysis of the data. IC50 values were determined using 3- or 4-parameter logistic equation.

In another data set the target is T2, CYP2C9 (Homo sapiens, UniProt P11712).
T2 construct: from tissue; host or cells: human liver microsomes (HLM)
T2 sequence (P11712 whole entry): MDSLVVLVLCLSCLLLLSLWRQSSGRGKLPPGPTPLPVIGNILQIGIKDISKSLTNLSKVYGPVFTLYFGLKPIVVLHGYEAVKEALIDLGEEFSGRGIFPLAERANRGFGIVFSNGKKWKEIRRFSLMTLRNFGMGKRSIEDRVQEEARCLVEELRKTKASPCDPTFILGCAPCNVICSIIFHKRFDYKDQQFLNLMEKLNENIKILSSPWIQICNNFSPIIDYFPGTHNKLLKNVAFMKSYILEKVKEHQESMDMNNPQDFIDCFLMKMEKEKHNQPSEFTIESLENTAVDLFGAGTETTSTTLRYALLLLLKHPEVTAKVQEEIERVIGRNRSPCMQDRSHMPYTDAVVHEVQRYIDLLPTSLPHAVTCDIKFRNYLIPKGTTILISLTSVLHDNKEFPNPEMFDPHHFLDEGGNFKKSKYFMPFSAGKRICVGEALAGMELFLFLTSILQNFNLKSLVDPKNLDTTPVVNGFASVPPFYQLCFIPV
Briefly: Cytochrome inhibition in HLM. It is filed as in vitro ADME. As for the experimental part:
as §1

A further data set deals with T3, CYP2D6 (Homo sapiens, UniProt P10635).
T3 construct: from tissue; host or cells: human liver microsomes (HLM)
T3 sequence (P10635 whole entry): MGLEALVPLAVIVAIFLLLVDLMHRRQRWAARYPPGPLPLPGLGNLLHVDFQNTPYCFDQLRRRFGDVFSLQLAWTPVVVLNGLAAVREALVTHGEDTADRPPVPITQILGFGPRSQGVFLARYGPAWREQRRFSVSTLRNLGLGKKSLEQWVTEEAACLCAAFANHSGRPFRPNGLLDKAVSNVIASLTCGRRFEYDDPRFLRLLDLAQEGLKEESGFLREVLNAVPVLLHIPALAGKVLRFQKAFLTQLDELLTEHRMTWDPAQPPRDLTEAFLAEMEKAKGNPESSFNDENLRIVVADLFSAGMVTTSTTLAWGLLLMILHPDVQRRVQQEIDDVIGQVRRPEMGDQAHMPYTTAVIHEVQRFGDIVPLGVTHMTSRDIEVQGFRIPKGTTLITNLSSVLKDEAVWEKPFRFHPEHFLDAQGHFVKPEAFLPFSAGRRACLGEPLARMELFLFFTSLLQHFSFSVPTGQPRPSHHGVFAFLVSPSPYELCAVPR
Briefly: Cytochrome inhibition in HLM. It is filed as in vitro ADME. As for the experimental part:
as §1

The next data set has as its target T4, CYP3A4-M (Homo sapiens, UniProt P08684).
T4 construct: from tissue; host or cells: human liver microsomes (HLM)
Briefly: Cytochrome inhibition in HLM. It is filed as in vitro ADME. As for the experimental part: as §1

Data set [2] deals with collagen α1 production in LX-2 cells. Briefly: LX-2 fibrosis assay, TGF-β stimulated (Western blot). It counts as cell-based, human. As for the experimental part: (§2) Collagen α1, α-SMA, CTGF and GAPDH were traced using Western blot analysis. DMSO and SB-525334 were used as negative and positive controls, respectively.
(§3) Human hepatic stellate cells LX-2 were grown in DMEM (Invitrogen, 11960) supplied with 1% MEM Non-Essential Amino Acids (Invitrogen, 11140-050), 2% fetal bovine serum (Hyclone, SV30087.03), Penicillin (100 U/mL)-streptomycin (100 μg/mL) (Millipore, TMS-AB2-C) and 2 mM L-Glutamine (Invitrogen, 25030-001). After the cells grew in 12-well plates for 24 h, the cell culture medium was changed to the same as above except using 0.4% fetal bovine serum. After 20 h growth in the reduced serum medium, the cells were treated with indicated doses of compounds for 30 minutes. Subsequently, the cells were stimulated with 4 ng/mL TGF-β (R&D Systems, 240-B-002) for 48 h. The cells were rinsed twice with DPBS before being harvested with 100 μL RIPA buffer (Sigma, R0278) supplemented with protease inhibitor cocktail (Roche, 04693132001) at 4° C. The total protein in each sample was quantified using BCA Protein Assay Kit (Pierce™, 23227) and equal amount of total protein of each sample was subject to Western blot analysis. Antibodies used were mouse anti-α-Actin (SPM332) (sc-365970), mouse anti-CTGF (E5) (sc-365970), and mouse anti-collagen al (3G3) (sc-293182), from Santa Cruz Biotechnologies; and mouse anti-GAPDH (6C5) (EMD Millipore, MAB374).
In general terms: Immunoblotting shows a protein as a band on a membrane.

Data set [3] concerns CTGF production in LX-2 cells. Described as above. It is filed as cell-based, human. The protocol:
as §2, §3

For data set [4] the following is noted: 10 μM. The protocol: Test compounds (at 10 μM) were incubated at 25° C. with 50 mM phosphate buffer, pH=7.4 and 8 mM MOPS pH 7.0, 0.2 mM EDTA, pH=7.0. Duplicate samples were used. […] Curcumin was used as positive control in this assay at neutral-basic condition. Samples were analyzed by LC/MS/MS, disappearance of test compound was assessed based on peak area ratios of analyte/IS (no standard curve).

For a further data set, the target named is T5, Human DDR1b (Homo sapiens, UniProt Q08345).
T5 construct: expressed in transfected cells
T5 sequence (Q08345 19-913): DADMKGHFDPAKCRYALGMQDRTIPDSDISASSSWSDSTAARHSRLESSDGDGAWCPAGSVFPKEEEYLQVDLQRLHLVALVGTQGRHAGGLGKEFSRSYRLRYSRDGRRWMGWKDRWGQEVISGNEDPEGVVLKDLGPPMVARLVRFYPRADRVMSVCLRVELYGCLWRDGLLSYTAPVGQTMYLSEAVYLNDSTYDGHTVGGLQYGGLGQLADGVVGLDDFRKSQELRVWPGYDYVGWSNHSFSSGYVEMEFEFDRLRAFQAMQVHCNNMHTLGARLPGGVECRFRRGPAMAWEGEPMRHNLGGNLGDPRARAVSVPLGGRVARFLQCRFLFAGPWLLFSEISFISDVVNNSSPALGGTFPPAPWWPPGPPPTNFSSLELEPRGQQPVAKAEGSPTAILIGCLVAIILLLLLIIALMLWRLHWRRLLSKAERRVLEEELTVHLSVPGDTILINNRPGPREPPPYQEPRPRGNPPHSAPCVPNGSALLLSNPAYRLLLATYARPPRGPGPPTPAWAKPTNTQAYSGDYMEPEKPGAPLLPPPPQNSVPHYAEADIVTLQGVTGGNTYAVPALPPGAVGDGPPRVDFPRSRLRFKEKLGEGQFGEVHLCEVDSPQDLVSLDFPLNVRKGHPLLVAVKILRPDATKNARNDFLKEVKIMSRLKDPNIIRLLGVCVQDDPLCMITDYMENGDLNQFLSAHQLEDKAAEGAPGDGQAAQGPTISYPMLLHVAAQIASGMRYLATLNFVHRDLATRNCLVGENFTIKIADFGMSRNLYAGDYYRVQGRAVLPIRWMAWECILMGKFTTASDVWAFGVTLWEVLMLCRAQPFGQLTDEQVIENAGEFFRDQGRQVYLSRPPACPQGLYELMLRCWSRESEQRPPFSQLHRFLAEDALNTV
Briefly: DDR1 autophosphorylation in collagen-stimulated U2OS cells (Western blot). It counts as cell-based. To be noted: normalized to HA and GAPDH. The protocol:
The amount of activated DRR1 (Y543) was measured using Western blot analysis, the obtained data were normalized to HA and GAPDH protein levels.
Human DDR1b gene with HA-tag was cloned into pCMV Tet-On vector (Clontech) and stable inducible cell lines established in U2OS were used for the IC50 test. […] The cells were detached with trypsinization and transferred to a 15-ml tube.

Another data set in a line: Thermodynamic solubility. It counts as physicochemical. The protocol: Since Compound 2 contains an imidazolidine fragment typically unusual in drug discovery we experimentally assessed key properties for this molecule. […] The inhibition activity of Compounds 1 and 2 towards a small panel of key cytochrome P450 (CYP450) isoforms was also assessed in vitro (Table 2).

The next data set deals with hDDR1 (Homo sapiens, UniProt Q08345). Briefly: KinaseProfiler radiometric biochemical kinase assay (Eurofins). More on the design: purchased Eurofins 14-942KP10. The protocol: The experimental procedures were performed by Eurofins. The activity of the molecules against hDDR1 and hDDR2 kinases was assessed using KinaseProfiler^67. […] The enzymatic reaction processed in the presence of Mg^2+ cations and ATP at room temperature for 40 minutes and terminated by addition of phosphoric acid. […] All the compounds were prepared in 100% DMSO. […] The biological evaluation of selectivity against non-target kinases was performed in Dundee Eurofins, using Scan Max Delta Panel [10 μM ATP] KinaseProfiler^68.
Sequence of hDDR1 (Q08345 19-913): as above

[5] abbreviates: PO 15 mg/kg, M04-M06 individual, c4 Mean ± SD, 15 mg/kg, mean.

T4 sequence (P08684 whole entry): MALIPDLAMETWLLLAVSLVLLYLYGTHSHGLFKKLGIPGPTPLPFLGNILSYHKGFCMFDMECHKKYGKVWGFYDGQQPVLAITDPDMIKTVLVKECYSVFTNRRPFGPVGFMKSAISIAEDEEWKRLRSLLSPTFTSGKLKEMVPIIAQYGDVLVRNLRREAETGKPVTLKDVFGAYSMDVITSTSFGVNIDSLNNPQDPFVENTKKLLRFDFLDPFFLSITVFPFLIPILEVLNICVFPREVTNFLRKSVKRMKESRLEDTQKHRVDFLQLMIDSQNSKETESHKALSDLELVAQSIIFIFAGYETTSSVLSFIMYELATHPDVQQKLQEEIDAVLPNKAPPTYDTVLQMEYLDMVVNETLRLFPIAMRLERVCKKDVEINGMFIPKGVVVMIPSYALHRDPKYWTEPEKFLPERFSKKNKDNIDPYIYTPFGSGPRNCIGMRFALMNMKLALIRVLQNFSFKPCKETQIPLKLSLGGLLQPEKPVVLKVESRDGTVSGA

Regarding `Cc1ccc2c(Nc3cccc(C(F)(F)F)c3)noc2c1C#Cc1cnc2cccnn12` [Compound 1], the Bioavailability in [1] (PO 15 mg/kg vs IV 10 mg/kg, calculated using AUC0-inf) was 17.8 ± — %. In addition, in [1] (setting [5]), the AUC0-inf was found to be 1911 ± 94.3 ng·h/mL, the AUC0-last was found to be 1896 ± 93.7 ng·h/mL, the AUCExtra came out at 0.787 ± 0.278% and the AUMCExtra came out at 4.01 ± 1.60%. In data set [1] (setting [5]), the Cmax stood at 276 ± 75.4 ng/mL, the MRT0-inf was 5.73 ± 0.999 h, the MRT0-last is given as 5.54 ± 1.000 h and the T1/2 is listed as 3.29 ± 0.278 h. For the same compound, the Tmax in data set [1] (setting [5]) came to 2.33 ± 1.53 h. For the same compound, the Tlast in data set [1] (PO 15 mg/kg, M04-M06 individual, c4 Mean, 15 mg/kg, mean) is recorded as 24.0 ± — h. This compound also registered an IC50 against CYP2C19 of more than 50 µM. This compound displayed an IC50 at CYP2C9 of more than 50 µM. The same compound yielded an IC50 on CYP2D6 of more than 50 µM. This compound registered an IC50 against CYP3A4-M of more than 50 µM. The IC50 in data set [2] (TGF-β stimulated LX-2 cells, normalized to GAPDH, read-out: IC50, collagen production) stood at 0.013 µM. Moreover, the “effect in CTGF assay” value in data set [3] (LX-2 cells) was “did not show the inhibition effect”.

Consider `O=C(Nc1cccc(C(=O)N2CCN(c3ccnc4[nH]ccc34)C2)c1)c1cccc(C(F)(F)F)c1` [Compound 2], for which the “% Remain” value in data set [4] (8 mM MOPS pH 7.0, 0.2 mM EDTA, pH 7.0, 0 min) came out at 100.00%; in [4] (8 mM MOPS pH 7.0, 0.2 mM EDTA, pH 7.0, 120 min), 101.41%; in data set [4] (8 mM MOPS pH 7.0, 0.2 mM EDTA, pH 7.0, 240 min) it was 103.81%; in data set [4] (8 mM MOPS pH 7.0, 0.2 mM EDTA, pH 7.0, 360 min), 106.18%; in [4] (8 mM MOPS pH 7.0, 0.2 mM EDTA, pH 7.0, 1440 min), 105.37%; in data set [4] (50 mM phosphate buffer, pH 7.4, 0 min), 100.00%. The “% Remain” value was 100.65% in data set [4] (50 mM phosphate buffer, pH 7.4, 120 min); 97.05% in [4] (50 mM phosphate buffer, pH 7.4, 240 min); 100.07% in [4] (50 mM phosphate buffer, pH 7.4, 360 min); 107.23% in [4] (50 mM phosphate buffer, pH 7.4, 1440 min). For the same compound, the IC50 against Human DDR1b is 0.0058 µM; against CYP2C19 it was 6.56 µM; against CYP2C9, 2.7 µM; on CYP2D6, 6.97 µM; at CYP3A4-M, 7.36 µM; in data set [2] (LX-2 cells, read-out: IC50, collagen assay), more than 10 µM. Further, the IC50 on hDDR1 (read-out: IC50, inhibition of DDR1 activity) came to 0.021 µM. The same compound showed a thermodynamic solubility in “Thermodynamic solubility” of less than 0.59 µg/mL. Besides, the CTGF production prevented in data set [3] (14 nM) is 43%. For the same compound, the “activity against DDR1 kinase (in words)” value at hDDR1 is recorded as “low nanomolar range”. The “LE** = 1.4*(pIC50)/N” value on hDDR1 (N number of heavy atoms) came out at 0.31.
